The values below come from US8361968B2 (Takeda Pharmaceutical Company Limited, priority 2002, dated 2013).

For assay [1], the target named is T1, hOT7T175 (Homo sapiens, UniProt Q969F8, L364H). Description: Intracellular Ca ion level-increasing activity using FLIPR in hOT7T175/CHO. It is filed as cell-based. The conditions noted are these: relative, Metastin (1-54) = 1. Further details: expressed in transfected cells; host or cells: CHO/dhfr- cells, obtained from ATCC.
Assay [2] deals with T1, hOT7T175. Description: hOT7T175 receptor binding activity: binding inhibition of Cy-5-labeled metastin (40-54) on hOT7T175-expressed CHO cells. Further details: expressed in transfected cells; host or cells: CHO cells.

SMILES strings stand for the structures. Numbered stars: 1 amine (or outer) side, 2 acyl side, 3 side chain; on linkers, the order of the positions; unused ones are H or OH. Square brackets hold non-standard residues; d marks the D form. Peptide text beside a SMILES is read from it. * marks the point of attachment. Propanoyl(3-indol-3-yl) = O=C(CCc1c[nH]c2ccccc12)*; X1 = O=C([C@H](Cc1ccc2ccccc2n1)N[*:1])[*:2]; 1Nal = N[C@@H](Cc1cccc2ccccc12)C(=O)O; Arg(Me) = CNC(=N)NCCC[C@H](N)C(=O)O; Cha = N[C@@H](CC1CCCCC1)C(=O)O; X2 = O=C(Cc1c[nH]c2ccccc12)*; Hexanoyl = CCCCCC(=O)*; azaGly = NNC(=O)O

T1 sequence (Q969F8 whole entry L364H): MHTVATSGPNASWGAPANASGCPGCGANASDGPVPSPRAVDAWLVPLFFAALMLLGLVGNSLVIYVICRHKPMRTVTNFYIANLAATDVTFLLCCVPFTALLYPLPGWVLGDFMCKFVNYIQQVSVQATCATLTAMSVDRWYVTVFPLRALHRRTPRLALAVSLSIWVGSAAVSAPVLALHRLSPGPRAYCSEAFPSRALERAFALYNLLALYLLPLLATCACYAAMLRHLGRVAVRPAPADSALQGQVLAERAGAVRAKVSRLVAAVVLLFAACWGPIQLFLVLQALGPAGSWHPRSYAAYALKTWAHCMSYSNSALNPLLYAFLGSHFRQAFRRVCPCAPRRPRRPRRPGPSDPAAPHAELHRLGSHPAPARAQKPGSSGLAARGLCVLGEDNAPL

With `CC(C)C[C@H](NC(=O)[C@H](C)NC(=O)[C@H](Cc1ccccc1)NC(=O)[C@H](CO)NC(=O)[C@H](CC(N)=O)NC(=O)[C@H](Cc1c[nH]c2ccccc12)NC(=O)[C@H](CC(N)=O)NC(=O)[C@@H](N)Cc1ccc(O)cc1)C(=O)N[C@@H](CCCNC(=N)N)C(=O)N[C@@H](Cc1ccccc1)C(N)=O` [Compound No. 50] (H-YNWNSFALRF-NH2), in assay [1], the “Specific Activity (intracellular Ca ion level-increasing activity)” value turned out to be 30. Also, the IC50 – broadly, the concentration at which inhibition is half-maximal – in assay [2] stood at 190 nM.
Turning to `CCNC(=N)NCCC[C@H](NC(=O)[C@H](CC(C)C)NC(=O)CNC(=O)[C@H](Cc1ccccc1)NC(=O)[C@H](CO)NC(=O)[C@H](CC(N)=O)NC(=O)[C@H](Cc1c[nH]c2ccccc12)NC(=O)[C@H](CC(N)=O)NC(=O)[C@@H](N)Cc1ccc(O)cc1)C(=O)N[C@@H](Cc1ccccc1)C(N)=O` [Compound No. 220], the “Specific Activity (intracellular Ca ion level-increasing activity)” value in assay [1] was 5. In addition, the IC50 in assay [2] came out at 330 nM.
With `CNC(=N)NCCC[C@H](NC(=O)[C@H](CC(C)C)NC(=O)NNC(=O)[C@H](Cc1ccccc1)NC(=O)[C@H](CO)NC(=O)[C@H](CC(N)=O)NC(=O)[C@H](Cc1c[nH]c2ccccc12)NC(=O)[C@@H](CC(N)=O)NC(=O)[C@H](N)Cc1ccc(O)cc1)C(=O)N[C@@H](Cc1ccccc1)C(N)=O` [Compound No. 237, D-Tyr-D-Asn-Trp-Asn-Ser-Phe-AzaGly-Leu-Arg(Me)-Phe-NH2], the “Specific Activity (intracellular Ca ion level-increasing activity)” value in assay [1] is 3. In assay [2], this molecule registered an IC50 of 27 nM.
For `CNC(=N)NCCC[C@H](NC(=O)[C@H](CC(C)C)NC(=O)NNC(=O)[C@H](Cc1ccccc1)NC(=O)[C@H](CO)NC(=O)[C@H](CC(N)=O)NC(=O)Cc1c[nH]c2ccccc12)C(=O)N[C@@H](Cc1ccccc1)C(N)=O` [Compound No. 266, Indol-3-acetyl-Asn-Ser-Phe-AzaGly-Leu-Arg(Me)-Phe-NH2] (X2-NSF[azaGly]L[Arg(Me)]F-NH2), in that order: 2 and 230 nM.
Regarding `CC(C)C[C@H](NC(=O)CNC(=O)[C@H](Cc1ccccc1)NC(=O)[C@H](CO)NC(=O)[C@H](CC(N)=O)NC(=O)[C@H](Cc1c[nH]c2ccccc12)NC(=O)[C@H](CC(N)=O)NC(=O)[C@@H](N)Cc1ccc(O)cc1)C(=O)N[C@@H](CCCNC(=N)N)C(=O)N[C@@H](Cc1cccc(C(F)(F)F)c1)C(N)=O` [Compound No. 200], the “Specific Activity (intracellular Ca ion level-increasing activity)” value in assay [1] came to 10. Besides, the concentration for half-maximal inhibition (IC50) in assay [2] was determined as 340 nM.
In the case of `CNC(=N)NCCC[C@H](NC(=O)[C@H](CC(C)C)NC(=O)NNC(=O)[C@H](Cc1ccccc1)NC(=O)[C@H](CO)NC(=O)[C@H](CC(N)=O)NC(=O)[C@H](Cc1c[nH]c2ccccc12)NC(=O)[C@H](N)Cc1ccc(O)cc1)C(=O)N[C@@H](Cc1ccccc1)C(N)=O` [Compound No. 222, D-Tyr-Trp-Asn-Ser-Phe-AzaGly-Leu-Arg(Me)-Phe-NH2] (H-[dY]WNSF[azaGly]L[Arg(Me)]F-NH2), the “Specific Activity (intracellular Ca ion level-increasing activity)” value in assay [1] is on record as 5. In assay [2], the IC50 turned out to be 33 nM.
For `CC(C)C[C@H](NC(=O)CNC(=O)[C@H](Cc1ccccc1)NC(=O)[C@H](CO)NC(=O)[C@H](CC(N)=O)NC(=O)CCc1c[nH]c2ccccc12)C(=O)N[C@@H](CCCNC(=N)N)C(=O)N[C@@H](Cc1ccccc1)C(N)=O` [Compound No. 114, 3-(3-Indolyl)propionyl-Asn-Ser-Phe-Gly-Leu-Arg-Phe-NH2] ({Propanoyl(3-indol-3-yl)}-NSFGLRF-NH2), in that order: 3 and 550 nM.
For `CNC(=N)NCCC[C@H](NC(=O)[C@H](CC(C)C)NC(=O)NNC(=O)[C@H](Cc1ccccc1)NC(=O)[C@H](CO)NC(=O)[C@H](CC(N)=O)NC(=O)[C@H](Cc1ccc2ccccc2n1)NC(=O)[C@H](CC(N)=O)NC(=O)[C@H](N)Cc1ccc(O)cc1)C(=O)N[C@@H](Cc1ccccc1)C(N)=O` [Compound No. 301, D-Tyr-Asn-Ala(2-Qui)-Asn-Ser-Phe-AzaGly-Leu-Arg(Me)-Phe-NH2] (H-[dY]N[X1]NSF[azaGly]L[Arg(Me)]F-NH2), in that order: 1 and 15 nM.
For `CCCCCC(=O)N[C@@H](CC(N)=O)C(=O)N[C@@H](CO)C(=O)N[C@@H](Cc1ccccc1)C(=O)NNC(=O)N[C@@H](CC(C)C)C(=O)N[C@@H](CCCNC(=N)NC)C(=O)N[C@@H](Cc1ccccc1)C(N)=O` [Compound No. 277, n-Hexanoyl-Asn-Ser-Phe-AzaGly-Leu-Arg(Me)-Phe-NH2] (Hexanoyl-NSF[azaGly]L[Arg(Me)]F-NH2), in that order: 2 and 54 nM.
Take `CC(C)C[C@H](NC(=O)CNC(=O)[C@H](Cc1cccc2ccccc12)NC(=O)[C@H](CO)NC(=O)[C@H](CC(N)=O)NC(=O)[C@H](Cc1c[nH]c2ccccc12)NC(=O)[C@H](CC(N)=O)NC(=O)[C@@H](N)Cc1ccc(O)cc1)C(=O)N[C@@H](CCCNC(=N)N)C(=O)N[C@@H](Cc1ccccc1)C(N)=O` [Compound No. 151, Tyr-Asn-Trp-Asn-Ser-Nal(1)-Gly-Leu-Arg-Phe-NH2] (H-YNWNS[1Nal]GLRF-NH2; N-terminus assumed): the “Specific Activity (intracellular Ca ion level-increasing activity)” value in assay [1] was 1. This molecule gave an IC50 in assay [2] of 300 nM.
With `CNC(=N)NCCC[C@H](NC(=O)[C@@H](NC(=O)CNC(=O)[C@H](Cc1ccccc1)NC(=O)[C@H](CO)NC(=O)[C@H](CC(N)=O)NC(=O)[C@H](Cc1c[nH]c2ccccc12)NC(=O)[C@H](CC(N)=O)NC(=O)[C@H](N)Cc1ccc(O)cc1)C(C)C)C(=O)N[C@@H](Cc1ccccc1)C(N)=O` [Compound No. 213] (H-[dY]NWNSFGV[Arg(Me)]F-NH2), the “Specific Activity (intracellular Ca ion level-increasing activity)” value in assay [1] turned out to be 2. The molecule also returned an IC50 in assay [2] of 190 nM.
Take `CNC(=N)NCCC[C@H](NC(=O)[C@H](CC(C)C)NC(=O)CNC(=O)[C@H](Cc1ccccc1)NC(=O)[C@H](CO)NC(=O)[C@H](CC(N)=O)NC(=O)[C@@H](Cc1c[nH]c2ccccc12)NC(=O)[C@H](CC(N)=O)NC(=O)[C@@H](N)Cc1ccc(O)cc1)C(=O)N[C@@H](Cc1ccccc1)C(N)=O` [Compound No. 143, Tyr-Asn-D-Trp-Asn-Ser-Phe-Gly-Leu-Arg(Me)-Phe-NH2]: the “Specific Activity (intracellular Ca ion level-increasing activity)” value in assay [1] is 3. In assay [2], this molecule gave an IC50 of 7.7 nM.
On to `CNC(=N)NCCC[C@H](NC(=O)[C@H](CC(C)C)NC(=O)CNC(=O)[C@H](Cc1ccccc1)NC(=O)[C@H](CO)NC(=O)[C@H](CC(N)=O)NC(=O)[C@H](CC1CCCCC1)NC(=O)[C@H](CC(N)=O)NC(=O)[C@H](N)Cc1ccc(O)cc1)C(=O)N[C@@H](Cc1ccccc1)C(N)=O` [Compound No. 171, D-Tyr-Asn-Cha-Asn-Ser-Phe-Gly-Leu-Arg(Me)-Phe-NH2] (H-[dY]N[Cha]NSFGL[Arg(Me)]F-NH2), for which the “Specific Activity (intracellular Ca ion level-increasing activity)” value in assay [1] is recorded as 10. In assay [2], the IC50 stood at 110 nM.
Consider `CC[C@H](C)[C@H](NC(=O)[C@H](CC(N)=O)NC(=O)[C@H](N)Cc1ccc(O)cc1)C(=O)N[C@@H](CC(N)=O)C(=O)N[C@@H](CO)C(=O)N[C@@H](Cc1ccccc1)C(=O)NNC(=O)N[C@@H](CC(C)C)C(=O)N[C@@H](CCCNC(=N)NC)C(=O)N[C@@H](Cc1ccccc1)C(N)=O` [Compound No. 233, D-Tyr-Asn-Ile-Asn-Ser-Phe-AzaGly-Leu-Arg(Me)-Phe-NH2] (H-[dY]NINSF[azaGly]L[Arg(Me)]F-NH2), for which, in assay [1], the “Specific Activity (intracellular Ca ion level-increasing activity)” value is listed as 1. Also, in assay [2], the IC50 was determined as 23 nM.
